From ChEMBL document CHEMBL6109162, “Discovery of Highly Potent BET Inhibitors based on a Tractable Tricyclic Scaffold” (ACS Med Chem Lett, 2025)

Assays:
[1] = molecular target: T1, Bromodomain-containing protein 4 (Homo sapiens, UniProt O60885); assay: Inhibition of BRD4 BD1 (unknown origin) by FRET assay
[2] = molecular target: T1, Bromodomain-containing protein 4; assay: Inhibition of BRD4 (unknown origin) by FRET assay

Row | IC50 [1] | IC50 [2] | SMILES
1 | 2.88 nM |  | Cc1nnn(C)c1-c1cnc2c3ccc(C(C)(C)O)cc3n([C@@H](c3ccccc3)C3CCOCC3)c2c1
2 |  | 1.51 nM | CCS(=O)(=O)Nc1ccc(Oc2ccc(F)cc2F)c(-c2cn(C)c(=O)c3[nH]ccc23)c1 [MIVEBRESIB]
